Counter-ions that a name gives are not always drawn. Like-named read-outs stand apart in the source and are kept apart here.
Assays:
HIV-1 (IIIB) [1] = details: earlier compounds of Fig. 1 / introduction, cited from earlier work; for EC50: WT HIV-1
HIV-1 (IIIB) [2] = assay: microbe, parasite or virus in culture; assay type: cell-based; details: for SI (IIIB): selectivity index, ratio CC50/EC50; for EC50: mean ± SD, n ≥ 3
From the text: (§1) Inspired by our previous research on heteroaromatic-biphenyl-DAPYs[15], the 4-cyanophenyl group on the biphenyl moiety was replaced with a privileged 4-pyridyl group for further evaluation.

in vitro = details: human, CC50
From the text: as §1

MT-4 cells [3] = assay: in vitro; details: human
From the text: as §1

HIV-1 L100I = assay: Antiviral activity against HIV-1 mutant L100I in MT-4 cells; assay type: cell-based; details: Human immunodeficiency virus 1, MT4, read-out: EC50 L100I
HIV-1 K103N = assay: Antiviral activity against HIV-1 mutant K103N in MT-4 cells; assay type: cell-based; details: Human immunodeficiency virus 1, MT4, read-out: EC50 K103N
HIV-1 Y181C = assay: Antiviral activity against HIV-1 mutant Y181C in MT-4 cells; assay type: cell-based; details: Human immunodeficiency virus 1, MT4, read-out: EC50 Y181C
HIV-1 E138K = assay: Antiviral activity against HIV-1 mutant E138K in MT-4 cells; assay type: cell-based; details: Human immunodeficiency virus 1, MT4, read-out: EC50 E138K
HIV-1 Y188L = assay: Antiviral activity against HIV-1 mutant Y188L in MT-4 cells; assay type: cell-based; details: Human immunodeficiency virus 1, MT4, read-out: EC50 Y188L
HIV-1 F227L + V106A = assay: microbe, parasite or virus in culture; assay type: cell-based; details: Human immunodeficiency virus 1, MT4, read-out: EC50 F227L + V106A
[4] = test system: HIV-1 K103N + Y181C (RES056); assay: Antiviral activity against HIV-1 double mutant K103N + Y181C (RES056) in MT-4 cells; assay type: cell-based; details: Human immunodeficiency virus 1, MT4, read-out: EC50 K103N + Y181C
WT HIV-1 RT = WT HIV-1 RT (Human immunodeficiency virus type 1 group M subtype B, UniProt P03366); assay: Inhibition of WT HIV-1 RT polymerase activity
Protocol: The anti-HIV-1 activity of A1–A24 and B1–B22 at the cellular or enzyme level were evaluated following our previously reported method[15].

[5] = comparison values; cited from earlier work
MT-4 cells [6] = details: earlier compounds of Fig. 1 / introduction; cited from earlier work
[7] = Human immunodeficiency virus 1, IIIB, MT4, WT HIV-1, protection of MT-4 cells against HIV-induced cytopathogenicity
[8] = WT HIV-1, protection of MT-4 cells against HIV-induced cytopathogenicity

Cc1cc(-c2ccc(C#N)cc2)cc(C)c1Nc1ccnc(Nc2ccc(C#N)cc2)n1 [compound 3]
EC50 (HIV-1 (IIIB) [1]): 0.001 µM | SI (HIV-1 (IIIB) [1]): 2,059

N#Cc1ccc(Nc2ncc(F)c(Nc3ccc(-c4ccc(C#N)cc4)cc3F)n2)cc1 [A7, 4′-((2-((4-Cyanophenyl)amino)-5-fluoropyrimidin-4-yl)amino)-3′-fluoro-[1,1′-biphenyl]-4-carbonitrile]
SI (IIIB) (HIV-1 (IIIB) [2]): >25,806 | CC50 (in vitro): > 45 µM | CC50 (MT-4 cells [3]): > 47 µM | EC50 (HIV-1 L100I): 5.44 ± 2.4 µM | EC50 (HIV-1 K103N): 0.068 ± 0.038 µM | EC50 (HIV-1 Y181C): 0.259 ± 0.165 µM | EC50 (HIV-1 E138K): 0.035 ± 0.017 µM | EC50 (HIV-1 Y188L): > 47.1 µM | EC50 (HIV-1 F227L + V106A): > 47.1 µM | EC50 [4]: > 47.1 µM | IC50 (WT HIV-1 RT): 0.028 ± 0.0047 µM

COc1cc(-c2ccncc2)ccc1Oc1nc(Nc2ccc(C#N)cc2)ncc1F [A16, 4-((5-Fluoro-4-(2-methoxy-4-(pyridin-4-yl)phenoxy)pyrimidin-2-yl)amino)benzonitrile]
EC50 (HIV-1 (IIIB) [2]; [7]): ≤ 0.0053 µM | EC50 (HIV-1 (IIIB) [2]; [8]): 0.0031 ± 0.0022 µM | SI (IIIB) (HIV-1 (IIIB) [2]): >15,094 | CC50 (in vitro): > 45 µM | CC50 (MT-4 cells [3]): > 48 µM | EC50 (HIV-1 L100I): 0.039 ± 0.0097 µM | EC50 (HIV-1 K103N): 0.012 ± 0.0039 µM | EC50 (HIV-1 Y181C): 0.104 ± 0.017 µM | EC50 (HIV-1 E138K): 0.013 ± 0.0034 µM | EC50 (HIV-1 Y188L): 1.52 ± 0.556 µM | EC50 (HIV-1 F227L + V106A): 1.23 ± 0.556 µM | EC50 [4]: > 48.4 µM | IC50 (WT HIV-1 RT): 0.034 ± 0.0024 µM

COc1cc(-c2ccc(C#N)cc2)ccc1Oc1nc(Nc2ccc(C#N)cc2)ncc1F [A4, 4′-((2-((4-Cyanophenyl)amino)-5-fluoropyrimidin-4-yl)oxy)-3′-methoxy-[1,1′-biphenyl]-4-carbonitrile]
EC50 (HIV-1 (IIIB) [2]; [7]): ≤ 0.0053 µM | EC50 (HIV-1 (IIIB) [2]; [8]): 0.003 ± 0.0011 µM | SI (IIIB) (HIV-1 (IIIB) [2]): >16,000 | CC50 (in vitro): > 45 µM | CC50 (MT-4 cells [3]): > 46 µM | EC50 (HIV-1 L100I): 0.041 ± 0.025 µM | EC50 (HIV-1 K103N): 0.0094 ± 0.0027 µM | EC50 (HIV-1 Y181C): 0.048 ± 0.014 µM | EC50 (HIV-1 E138K): 0.0078 ± 0.0023 µM | EC50 (HIV-1 Y188L): 1.37 ± 0.206 µM | EC50 (HIV-1 F227L + V106A): ≥ 1.6 µM | EC50 [4]: > 45.7 µM | IC50 (WT HIV-1 RT): 0.046 ± 0.0046 µM

Cc1cc(/C=C/C#N)cc(C)c1Nc1ccnc(Nc2ccc(C#N)cc2)n1 [RPV · HCl, rilpivirine HCl]
F (oral bioavailability) [5]: 32%

CN(c1ccnc(Nc2ccc(C#N)cc2)n1)c1c(F)cc(-c2ccc(C#N)cc2)cc1F [compound 5]
EC50 (HIV-1 (IIIB) [1]): 0.0062 µM | SI (HIV-1 (IIIB) [1]): 24,067 | CC50 (MT-4 cells [6]): 148 µM

N#Cc1ccc(Nc2ncc(F)c(Nc3c(F)cc(-c4ccc(C#N)cc4)cc3F)n2)cc1 [A11, 4′-((2-((4-Cyanophenyl)amino)-5-fluoropyrimidin-4-yl)amino)-3′,5′-difluoro-[1,1′-biphenyl]-4-carbonitrile]
SI (IIIB) (HIV-1 (IIIB) [2]): >40,000 | CC50 (in vitro): > 45 µM | EC50 (HIV-1 L100I): 0.01 ± 0.0029 µM | EC50 (HIV-1 K103N): 0.005 ± 0.0011 µM | EC50 (HIV-1 Y181C): 0.0081 ± 0.002 µM | EC50 (HIV-1 E138K): 0.0025 ± 0.0007 µM | EC50 (HIV-1 Y188L): > 45.2 µM | EC50 (HIV-1 F227L + V106A): > 45.2 µM | EC50 [4]: > 45.2 µM | IC50 (WT HIV-1 RT): 0.027 ± 0.0023 µM

COc1cc(-c2ccc(C#N)cc2)ccc1Nc1nc(Nc2ccc(C#N)cc2)ncc1Cl [B9, 4′-((5-Chloro-2-((4-cyanophenyl)amino)pyrimidin-4-yl)amino)-3′-methoxy-[1,1′-biphenyl]-4-carbonitrile]
EC50 (HIV-1 (IIIB) [2]; [7]): 0.104 ± 0.068 µM | SI (IIIB) (HIV-1 (IIIB) [2]): 2261 | CC50 (in vitro): 236 ± 24 µM

N#Cc1ccc(Nc2ncc(F)c(Nc3ccc(-c4ccncc4)cc3F)n2)cc1 [A19, 4-((5-Fluoro-4-((2-fluoro-4-(pyridin-4-yl)phenyl)amino)pyrimidin-2-yl)amino)benzonitrile]
EC50 (HIV-1 (IIIB) [2]; [7]): 0.018 ± 0.014 µM | SI (IIIB) (HIV-1 (IIIB) [2]): >2765 | CC50 (in vitro): > 50 µM

COc1cc(-c2ccncc2)ccc1Nc1nc(Nc2ccc(C#N)cc2)ncc1Cl [B20, 4-((5-Chloro-4-((2-methoxy-4-(pyridin-4-yl)phenyl)amino)pyrimidin-2-yl)amino)benzonitrile]
EC50 (HIV-1 (IIIB) [2]; [7]): 0.536 ± 0.326 µM | SI (IIIB) (HIV-1 (IIIB) [2]): 306 | CC50 (in vitro): 164 ± 51 µM

Cc1cc(-c2ccncc2)cc(C)c1Oc1nc(Nc2ccc(C#N)cc2)ncc1F [A18, 4-((4-(2,6-Dimethyl-4-(pyridin-4-yl)phenoxy)-5-fluoropyrimidin-2-yl)amino)benzonitrile]
EC50 (HIV-1 (IIIB) [2]; [7]): 0.056 ± 0.044 µM | SI (IIIB) (HIV-1 (IIIB) [2]): >868 | CC50 (in vitro): > 49 µM

— PMC12399242 (Acta Pharmaceutica Sinica. B, 2025)
